Among the test systems are SK-OV-3 ovarian; A549 NSCLC; HCT-15 colon; MDA-MB-231 breast; UACC-257 melanoma; SF-539 CNS; BT-549 breast; IGROV1 ovarian; NCI/ADR-RES ovarian; CAKI-1 renal; HS 578T breast; EKVX NSCLC; CCRF-CEM leukemia; K-562 leukemia; HOP-92 NSCLC; NCI-H460 lung; HCC-2998 colon.
What all share (test): NCI anticancer screen, dose series, 48 h

SMILES strings stand for the structures.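 Test compounds were applied to cells in 96-well plates for 48 hours at 5 doses. The concentration for full growth arrest is given as TGI.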

In the case of `COCN1C(=O)[C@@H]2CCCN2C(=O)c2cc(OC)c(Cc3ccccc3)cc21`, the TGI in the experiment with SK-OV-3 ovarian, in the experiment with A549 NSCLC, in the experiment with HCT-15 colon, in the experiment on MDA-MB-231 breast, with UACC-257 melanoma and in the experiment with SF-539 CNS was over 100 µM in each case. In addition, the TGI with BT-549 breast, in the experiment on IGROV1 ovarian, with NCI/ADR-RES ovarian, with CAKI-1 renal, in the experiment on HS 578T breast and in the experiment with EKVX NSCLC was over 100 µM in each case.

As to `CC(=O)N1C=Cc2c(c(C)c3c([nH]c4ccccc43)c2C)C1`, the TGI is 27 µM in the experiment with SK-OV-3 ovarian; 24.2 µM with A549 NSCLC; 4.99 µM with HCT-15 colon; over 100 µM with CCRF-CEM leukemia; 9.34 µM in the experiment on MDA-MB-231 breast; 29.6 µM in the experiment on UACC-257 melanoma. The TGI is 18.8 µM in the experiment with SF-539 CNS; over 100 µM in the experiment with K-562 leukemia; 14.6 µM in the experiment with BT-549 breast; 17.9 µM with IGROV1 ovarian; 8.41 µM in the experiment on NCI/ADR-RES ovarian; 25.4 µM with CAKI-1 renal. The TGI is 15.9 µM in the experiment on HS 578T breast, 20.8 µM in the experiment with HOP-92 NSCLC and 8.13 µM in the experiment on EKVX NSCLC.

In the case of `CCOC(=O)c1nc2ccccc2nc1Oc1cc(OC)cc(OC)c1`, the TGI in the experiment with SK-OV-3 ovarian, with A549 NSCLC, in the experiment with HCT-15 colon, with CCRF-CEM leukemia, with MDA-MB-231 breast and with UACC-257 melanoma was over 100 µM each time. For the same compound, the TGI with SF-539 CNS, with K-562 leukemia, in the experiment on BT-549 breast, in the experiment with IGROV1 ovarian, with NCI/ADR-RES ovarian and in the experiment on NCI-H460 lung was over 100 µM throughout. Further, the TGI with HS 578T breast, in the experiment with HOP-92 NSCLC and with EKVX NSCLC was over 100 µM each time.

Regarding `O=C1CSC(c2c[nH]c3ccccc23)N1c1cccc(Cl)c1` (stereo not given), the TGI in the experiment on SK-OV-3 ovarian was over 100 µM; in the experiment with A549 NSCLC, over 100 µM; in the experiment on HCT-15 colon, over 100 µM; in the experiment with CCRF-CEM leukemia it was over 100 µM; with HCC-2998 colon, over 100 µM; in the experiment with MDA-MB-231 breast, 80.2 µM. In addition, the TGI was over 100 µM in the experiment on UACC-257 melanoma; over 100 µM with SF-539 CNS; over 100 µM with K-562 leukemia; 96.6 µM in the experiment on BT-549 breast; over 100 µM in the experiment on IGROV1 ovarian; over 100 µM in the experiment with NCI/ADR-RES ovarian. For the same compound, the TGI with NCI-H460 lung, in the experiment with HS 578T breast, in the experiment with HOP-92 NSCLC and with EKVX NSCLC was over 100 µM each time.

For the compound `CN(Cc1cnc2nc(N)nc(N)c2n1)c1ccc(C(=O)NCCCS(=O)(=O)O)cc1`, the TGI with SK-OV-3 ovarian, in the experiment on A549 NSCLC, in the experiment with HCT-15 colon, in the experiment with HCC-2998 colon, with MDA-MB-231 breast and with UACC-257 melanoma was over 100 µM in each case. Besides, the TGI with SF-539 CNS, in the experiment with K-562 leukemia, in the experiment on BT-549 breast, in the experiment with IGROV1 ovarian, with NCI/ADR-RES ovarian and with NCI-H460 lung was over 100 µM in each case. Besides, the TGI with HS 578T breast and in the experiment on EKVX NSCLC was over 100 µM each time.

Take `O=C1c2ccccc2-c2nnc3c(c21)Cc1ccccc1C3`: the TGI in the experiment with SK-OV-3 ovarian, with A549 NSCLC, in the experiment on HCT-15 colon, with CCRF-CEM leukemia, with HCC-2998 colon and in the experiment with MDA-MB-231 breast was over 10 µM in each case. For the same compound, the TGI with SF-539 CNS, with K-562 leukemia, in the experiment with BT-549 breast, in the experiment with IGROV1 ovarian, in the experiment on NCI/ADR-RES ovarian and in the experiment on NCI-H460 lung was over 10 µM throughout. In addition, the TGI in the experiment with CAKI-1 renal, with HS 578T breast, in the experiment with HOP-92 NSCLC and in the experiment with EKVX NSCLC was over 10 µM each time.

In the case of `COc1cc2nc(-c3cccs3)nc(Nc3cccc([N+](=O)[O-])c3)c2cc1OC`, the TGI with SK-OV-3 ovarian is 41.5 µM; in the experiment on A549 NSCLC it was 53.8 µM; with HCT-15 colon, 31.8 µM; with CCRF-CEM leukemia it was over 100 µM; in the experiment with MDA-MB-231 breast it was 35.9 µM; in the experiment on UACC-257 melanoma, 44.2 µM. For the same compound, the TGI is 34 µM with SF-539 CNS; over 100 µM in the experiment with K-562 leukemia; 39.7 µM in the experiment with BT-549 breast; 32.2 µM with IGROV1 ovarian; 46.9 µM in the experiment with NCI/ADR-RES ovarian; 77.1 µM in the experiment on NCI-H460 lung. Moreover, the values for the TGI with CAKI-1 renal, in the experiment with HS 578T breast and in the experiment with EKVX NSCLC were 36.8 µM, 70.5 µM and 33.1 µM, respectively.

For the compound `CCNC1=C(NC(=O)c2ccc(F)cc2)C(=O)c2ccccc2C1=O`, the TGI in the experiment on SK-OV-3 ovarian, in the experiment on A549 NSCLC, in the experiment on HCT-15 colon, in the experiment on CCRF-CEM leukemia, with HCC-2998 colon and with MDA-MB-231 breast was over 100 µM in each case. Moreover, the TGI in the experiment on UACC-257 melanoma is 46.9 µM; with SF-539 CNS it was over 100 µM; with K-562 leukemia, over 100 µM; in the experiment with BT-549 breast, over 100 µM; with IGROV1 ovarian, over 100 µM; in the experiment with NCI/ADR-RES ovarian it was over 100 µM. Besides, the TGI in the experiment on NCI-H460 lung, in the experiment on HS 578T breast, in the experiment with HOP-92 NSCLC and with EKVX NSCLC was over 100 µM each time.

In the case of `O=C1CSCC(=O)Nc2ccccc2N1`, the TGI in the experiment with SK-OV-3 ovarian, in the experiment with A549 NSCLC, in the experiment with HCT-15 colon, in the experiment on CCRF-CEM leukemia, in the experiment with MDA-MB-231 breast and in the experiment on UACC-257 melanoma was over 100 µM in each case. Moreover, the TGI in the experiment with SF-539 CNS, with K-562 leukemia, in the experiment with BT-549 breast, with IGROV1 ovarian, in the experiment on NCI/ADR-RES ovarian and in the experiment with NCI-H460 lung was over 100 µM throughout. Further, the TGI in the experiment with CAKI-1 renal, in the experiment on HS 578T breast, in the experiment on HOP-92 NSCLC and in the experiment on EKVX NSCLC was over 100 µM throughout.

The values above are taken from PubChem BioAssay (NCI).
